Test results published in US20060078499A1, “Use of hedgehog agonist to treat depression” (priority 2003, published 2006).

Legend:
129/SvEv mice = test: Novelty-suppressed feeding test (NSF); assay type: in vivo, mouse
Protocol: The Novelty-suppressed feeding test was carried out during a 5-min period as previously described (Santarelli et al., 2001). Briefly, the testing apparatus consisted of a plastic box, 50×50×20 cm. The floor was covered with approximately 2 cm of wooden bedding. Twenty-four hours prior to behavioral testing, all food was removed from the home cage. At the time of testing, a single pellet of food (regular chow) was placed on a white paper platform positioned in the center of the box. An animal was placed in a corner of the maze and a stopwatch was immediately started. The measure of interest (chewing) was scored when the mouse was sitting on its haunches and biting with the use of forepaws. Immediately after this test, mice were transferred to their home cage and the amount of food consumed in 5 min was measured (home cage food consumption). […] Mice were always tested during the light period.
The NSF is a conflict test in which food-deprived animals are presented with a food pellet placed in the center of a brightly-lit open field. This paradigm elicits competing motivations: the drive to eat the food pellet, and the fear of venturing into the center of the arena.
Haloperidol, an antipsychotic that antagonizes D2 dopamine receptors, was used as a negative control because it is devoid of antidepressant activity in humans. NSF performance was assessed after either 5 or 28 days of oral drug administration.

[1] = test system: BrdU-positive cells in the dentate gyrus; test: BrdU labeling of cell proliferation, sacrifice 24 hr after BrdU; assay type: in vivo, mouse; details: for cell proliferation (BrdU-labeled cells in the SGZ): 1 mg/kg/day mini pumps; for BrdU-labeled cells in dentate gyrus: 27 days of treatment, 24 hours after BrdU
Protocol: (§1) To assess the effect of antidepressant or X-irradiation treatments on the number of BrdU-positive cells, mice were administered BrdU (4×75 mg/kg i.p., dissolved in saline, every 2 hr; Roche Diagnostic, Indianapolis, Ind.) and sacrificed 24 hr after the last BrdU injection (FIG. 2A, 3B, 5C-D). To determine cell survival and phenotype after the various antidepressant treatments, fluoxetine, imipramine and vehicle-treated mice were allowed to survive for 28 days after the last BrdU injection (FIG. 2C-D, 3C). After deep anesthesia with a mixture of ketamine/xylazine (100 mg/kg and 7 mg/kg respectively), mice were transcardially perfused (cold saline for 2 min, followed by 4% cold paraformaldehyde/0.1 M phosphate buffer for 5 min) and brains were collected for immunohistochemistry. All brains were post-fixed overnight in 4% paraformaldehyde at 4° C., then cryoprotected in 30% sucrose and stored at 4° C. Serial sections of the brains were cut (35 μm sections) through the entire hippocampus (plates 41-61; Franklin and Paxinos, 1997) on a cryostat and stored in PBS with 0.1% NaN3. For DAB staining, sections were slide-mounted and boiled in citric acid, pH 6.0, for 5 min, rinsed with PBS, and treated with 0.01% trypsin in Tris/CaCl2 for 10 min. Brain sections were incubated for 30 min with 2N HCl and blocked with 5% NGS (Jackson ImmunoResearch, West Grove, Pa.). Sections were then incubated over night at room temperature with anti-mouse BrdU (1:100; Becton-Dickinson). After washing with PBS, sections were incubated for 1 hr with secondary antibody (1:200 biotinylated goat anti-mouse; Sigma-Aldrich, St. Louis, Mo.) followed by amplification with an avidin-biotin complex (Vector Laboratories). The staining was visualized with DAB (Sigma-Aldrich, St. Louis, Mo.). For fluorescent double-labeling, the DNA-denaturation procedure consisted of the following steps: 2 hr incubation in 50% formamide-2×SSC at 65° C., 5 min rinse in 2×SSC, 30 min incubation in 2N HCl at 37° C., and 10 min rinse in 0.1 M boric acid, pH 8.5. Sections were then incubated in TBS-0.1% Triton X-100 (Tx)-5% normal donkey serum (NDS) for 30 min, followed by anti-rat BrdU primary antibody (1:100; Accurate Westbury, N.Y. or Serotec, Oxford, UK) in TBS/NDS/Tx for 24 hrs at 4° C. in combination with either a mouse monoclonal antibody to NeuN (1:500; Chemicon, Temecula, Calif.) or a rabbit polyclonal antibody to GFAP (1:800; DAKO, Carpinteria, Calif.). The fluorescent secondary antibodies used were biotin-conjugated donkey anti-rat (1:200) plus streptavidin Cy2 (1:200), donkey anti-mouse Cy3 (1:500), or donkey anti-rabbit Cy3 (1:500) (Jackson ImmunoResearch, West Grove, Pa.). Fluorescent images were taken with a Bio-Rad MRC 1000 confocal laser scanning system coupled to a Zeiss Axiovert 100 inverted microscope. For each image acquisition, a Kalman average of five frames was used. For quantification of BrdU/NeuN or BrdU/GFAP double-labeled cells, at least 50 BrdU-positive cells per animal were analyzed using Z-plane sectioning (1 μm steps).
It has recently been shown that various antidepressant treatments, including fluoxetine, increase neurogenesis in the dentate gyrus (DG) of the rat hippocampus (Malberg et al., 2000). […] To confirm that chronic fluoxetine induces changes in the number of BrdU-positive cells in the DG, we treated adult mice with either vehicle or fluoxetine for 5, 11 or 28 days. On the final day of treatment, all animals were injected with BrdU (four injections of 75 mg/kg), sacrificed 24 hours later, and perfused for immunohistochemistry. The treatment with fluoxetine caused a 60% increase in the number of BrdU positive cells in the DG of animals after either 11 or 28 days, but had no effect in animals treated for 5 days (FIGS. 2A and B).
(§2) In this set of experiments, wild type and 5-HT1A receptor KO mice were injected with BrdU following 27 days of treatment with fluoxetine, imipramine, or vehicle. […]

[2] = 129/SvEv, mouse, in vivo, po
Protocol: Fluoxetine (Eli Lilly, Indianapolis, Ind.), Imipramine (Sigma-Aldrich, St. Louis, Mo.), Desipramine (Sigma-Aldrich, St. Louis, Mo.) and Haloperidol (Sigma-Aldrich, St. Louis, Mo.) were dissolved in tap water at a concentration of 80, 160, 160, and 8 mg/L, respectively. These concentration were established based on the average drinking amount and average weight of the mice used in the study to achieve a final dose of 10 (fluoxetine), 20 (imipramine and desipramine) and 1 (haloperidol) mg/kg/day. […] Vehicle animals received tap water. 8-hydroxy-2-(di-n-propylamino) tetralin (8-OH-DPAT, Sigma-Aldrich, St. Louis, Mo.) was dissolved in sterile saline (0.9% NaCl) at a concentration of 4.5 mg/ml, and delivered through Alzet osmotic mini-pumps (model 2004, Alzet, Cupertino, Calif.) implanted subcutaneously 28 days prior to behavioral testing. The final average dose delivered was 1 mg/kg/day. Sham mice were implanted with mini-pumps containing sterile saline.

[3] = test system: BrdU-positive cells within the SGZ and granule cell layer; test: Survival and phenotype of BrdU-positive cells 28 days after BrdU injection; assay type: in vivo, mouse; details: for BrdU-positive cells surviving 28 days after BrdU injection: chronic treatment
Protocol: as §1
To determine the fate of hippocampal cells labeled with BrdU following chronic treatment with either fluoxetine or vehicle, animals were allowed to survive for a period of four weeks after injection of BrdU. During this time fluoxetine oral treatment was suspended and animals were returned to tap water. Brain sections were co-labeled with antibodies raised against BrdU and either the mature neuronal marker NeuN or the astroglial marker GFAP. […] The percentage of BrdU-positive cells within the SGZ and granule cell layer that expressed NeuN was 70±2%, and the percentage of BrdU-positive cells that expressed GFAP was 15±3%. These proportions were not influenced by the antidepressant treatment, as previously reported (Malberg et al., 2000).
as §2

BALB/c mice = test: Chronic unpredictable stress paradigm (CUS); assay type: in vivo, mouse; details: for state of the fur (coat score) / grooming latency: 10 mg/kg/day i.p.; for weight loss induced by stress: data not shown
Protocol: The stress regimen used is a variant of the chronic mild stress procedures described by Willner et al. (Willner et al., 1992). Mice were subjected to various and repeated unpredictable stressors for a period of five weeks (Griebel et al., 2002). The different stressors used were: alterations of the bedding (repeated sawdust changing, removal of sawdust, damp sawdust, substitution of sawdust with 37° C. water); cage tilting (45°); predator sounds (15 min.); cage shift (mice were positioned in the empty cage of another male); light to dark or dark to light shifts (four light/dark successions of 30 min every 24 hours); reversal of the light/dark cycle. The fluoxetine treatment (10 mg/kg/day, i.p.) started at the beginning of the third week. The state of the coat was assessed at the end of the stress regimen (end of fifth week). The total score resulted from the sum of the score of seven different body parts: head, neck, dorsal coat, ventral coat, tail, forepaws and the hindpaws. A score of 0 was given for a well-groomed coat and 1 for a spoiled coat (see Griebel, 2002). The grooming latency was assessed at the end of the sixth week. This test consisted in squirting 200 μl of a 10% sucrose solution on the mouse's snout. The latency to start grooming was then recorded.
The CUS protocol consists of the sequential application of a number of stressors, presented in a varied and unpredictable manner during 5 weeks. The continued application of these stressors produces a deterioration in the state of the coat, an impaired grooming response, and weight loss (Griebel et al., 2002; Willner et al., 1992). ADs such as fluoxetine can reverse these stress-induced effects after chronic, but not acute, administration (Griebel et al., 2002; Willner et al., 1992).
Sham and irradiated mice were subjected to five weeks of CUS, beginning two weeks after the final X-ray dose, and half of the animals in each group were administered fluoxetine (10 mg/kg/day, i.p.) from weeks 3-6. The state of each animal's fur was assessed at the end of the stress period, and assigned a score based on observations from several body regions (see methods). Fluoxetine treatment was continued for one more week, after which we measured the latency to begin grooming following application of a sucrose solution to the head of each animal.

[4] = test system: BrdU-positive cells in the dentate gyrus; test: BrdU labeling of cell proliferation, sacrifice 24 hr after BrdU; assay type: in vivo, mouse; details: chronic treatment
[5] = 28-day treatment via drinking water, compared to vehicle
[6] = 5-HT1A knockout (-/-) mice, 28 days, vs vehicle
[7] = wild type (+/+) mice, 28 days, vs vehicle
[8] = 5-day treatment via drinking water, compared to vehicle
[9] = X-irradiated animals, chronic treatment
[10] = sham (non-irradiated) animals, chronic treatment
[11] = four weeks after BrdU, chronic fluoxetine or vehicle, proportions not influenced by treatment

SMILES | latency to feed (129/SvEv mice; [5]) | latency to feed (129/SvEv mice; [6]) | latency to feed (129/SvEv mice; [7]) | time by which steady serum levels had been achieved [2] [days] | latency to feed (129/SvEv mice; [8]) | latency to feed (129/SvEv mice; [9]) | latency to feed (129/SvEv mice; [10]) | BrdU-positive cells surviving 28 days after BrdU injection ([3]; 5-HT1A receptor KO mice) | BrdU-positive cells surviving 28 days after BrdU injection ([3]; WT mice) | BrdU-labeled cells in dentate gyrus ([1]; 5-HT1A receptor KO mice) | BrdU-labeled cells in dentate gyrus ([1]; wild type mice) | other results
CCCN(CCC)C1CCc2cccc(O)c2C1 (stereo not shown) [8-OH-DPAT, 8-hydroxy-2-(di-n-propylamino) tetralin] |  |  |  |  |  |  |  |  |  |  |  | latency to feed (129/SvEv mice; 5-HT1A receptor KO mice, 28 days s.c. osmotic mini pumps, 1 mg/kg/day, vs sham): ineffective; latency to feed (129/SvEv mice; WT mice, 28 days s.c. osmotic mini pumps, 1 mg/kg/day, vs sham): significantly decreased; cell proliferation (BrdU-labeled cells in the SGZ) ([1]; 5-HT1A receptor KO mice, chronic treatment): not observed; cell proliferation (BrdU-labeled cells in the SGZ) ([1]; WT mice, chronic treatment): increase in cell proliferation
O=C(CCCN1CCC(O)(c2ccc(Cl)cc2)CC1)c1ccc(F)cc1 [Haloperidol] | ineffective |  |  |  |  |  |  |  |  |  |  | 
CNCCCN1c2ccccc2CCc2ccccc21 [desipramine, Desipramine] | significant decreases | effective | significantly decreased | ≤ 5 |  |  |  |  |  |  |  | 
CNCCC(Oc1ccc(C(F)(F)F)cc1)c1ccccc1 (stereo not shown) [fluoxetine, Fluoxetine] | significant decreases | insensitive | significantly decreased | ≤ 5 | had no effect | no such anxiolytic-like effect | significant reduction | not in KO | had an effect | had no effect | two-fold increase | percentage of BrdU-positive cells that expressed GFAP [3, 11]: 15±3%; percentage of BrdU-positive cells that expressed NeuN [3, 11]: 70±2%; increase in the number of BrdU positive cells in the DG ([1]; after either 11 or 28 days of treatment, vs vehicle): 60%; number of BrdU positive cells in the DG ([1]; animals treated for 5 days): had no effect; cell proliferation after irradiation ([1]; irradiated animals, chronic treatment): had no effect; cell proliferation in the SGZ ([1]; non-irradiated mice, chronic treatment): increased cell proliferation; state of the fur (coat score) (BALB/c mice; irradiated animals): absent; weight loss induced by stress (BALB/c mice; irradiated animals): blocked this effect; grooming latency (BALB/c mice; irradiated mice): not in irradiated mice; state of the fur (coat score) (BALB/c mice; sham animals): significantly improved; weight loss induced by stress (BALB/c mice; sham animals): trend to reverse the weight loss; grooming latency (BALB/c mice; sham mice): decreased; cell proliferation in the SVZ [4]: had no effect
CN(C)CCCN1c2ccccc2CCc2ccccc21 [imipramine, Imipramine] | significant decreases | effective | significantly decreased | ≤ 5 | had no effect | no such anxiolytic-like effect | significant reduction | effective | effective | significant increase | significant increase | increase in the number of BrdU positive cells (SGZ and GCL) ([1]; both genotypes (+/+ and 5-HT1A -/-), 4 weeks of treatment): ~2 fold
NCCC(Oc1ccc(C(F)(F)F)cc1)c1ccccc1 (stereo not shown) [nor-fluoxetine] |  |  |  | ≤ 5 |  |  |  |  |  |  |  | 
